Drawing on ChEMBL document CHEMBL1145415, “Synthesis and antibacterial activity of novel fluoroquinolones containing substituted piperidines” (2007), this text covers MIC for 19 molecules.

Values after ≈ are worked out from the molar mass of the structure shown.

What all share (assay type): functional
Test [1] deals with Staphylococcus aureus. Kind of test: Antibacterial activity against methicillin-sensitive Staphylococcus aureus 04-4 after 18 to 24 hrs.
For test [2], the system named is Staphylococcus aureus. Kind of test: Antibacterial activity against methicillin-resistant Staphylococcus aureus 05-3 after 18 to 24 hrs.
Another test concerns Streptococcus pneumoniae. Description: Antibacterial activity against Streptococcus pneumoniae 05-9 after 18 to 24 hrs.
For the next test, the system named is Enterococcus faecalis. Description: Antibacterial activity against Enterococcus faecalis 03-4 after 18 to 24 hrs.
The subject of another test is Escherichia coli. Description: Antibacterial activity against Escherichia coli ATCC 25922 after 18 to 24 hrs.
A further test deals with Klebsiella pneumoniae. Kind of test: Antibacterial activity against Klebsiella pneumoniae 05-4 after 18 to 24 hrs.
In another test the test system is Pseudomonas aeruginosa. Kind of test: Antibacterial activity against Pseudomonas aeruginosa […] after 18 to 24 hrs.

The term MIC denotes the lowest concentration found to suppress growth. For the molecule `CNC1CCN(c2nc3c(cc2F)c(=O)c(C(=O)O)cn3C2CC2)C/C1=N\OC` (stereo not drawn), the MIC against Staphylococcus aureus [1] is under 0.001 µg/mL; with Staphylococcus aureus [2], 0.5 µg/mL (≈ 1.24 µM); in the test on Streptococcus pneumoniae, under 0.001 µg/mL; with Enterococcus faecalis, under 0.001 µg/mL; against Escherichia coli, 1 µg/mL (≈ 2.48 µM); in the test on Klebsiella pneumoniae it was 1 µg/mL (≈ 2.48 µM). Besides, the lowest concentration to inhibit growth in the test with Pseudomonas aeruginosa (MIC) was 0.06 µg/mL (≈ 0.149 µM).

`CO/N=C1\CN(c2nc3c(cc2F)c(=O)c(C(=O)O)cn3C2CC2)CCC1NC1CC1` (stereo not drawn): the minimum inhibitory concentration (MIC) with Staphylococcus aureus [1] came to 0.015 µg/mL (≈ 0.0349 µM); against Staphylococcus aureus [2] it was 2 µg/mL (≈ 4.66 µM); against Streptococcus pneumoniae it was 0.004 µg/mL (≈ 0.00931 µM); in the test on Enterococcus faecalis, 0.004 µg/mL (≈ 0.00931 µM); in the test with Escherichia coli, 16 µg/mL (≈ 37.3 µM); against Klebsiella pneumoniae, 16 µg/mL (≈ 37.3 µM). In the test with Pseudomonas aeruginosa, this molecule returned a minimal inhibitory concentration (MIC) of 1 µg/mL (≈ 2.33 µM).

On to `CCO/N=C1\CCN(c2nc3c(cc2F)c(=O)c(C(=O)O)cn3C2CC2)CC1NC` (stereo not drawn), for which the minimal inhibitory concentration (MIC) is under 0.001 µg/mL with Staphylococcus aureus [1]; 4 µg/mL (≈ 9.58 µM) with Staphylococcus aureus [2]; under 0.001 µg/mL against Streptococcus pneumoniae; under 0.001 µg/mL against Enterococcus faecalis; 8 µg/mL (≈ 19.2 µM) in the test on Escherichia coli; 16 µg/mL (≈ 38.3 µM) with Klebsiella pneumoniae. Besides, the MIC against Pseudomonas aeruginosa came out at 1 µg/mL (≈ 2.4 µM).

Turning to `CCCO/N=C1\CCN(c2nc3c(cc2F)c(=O)c(C(=O)O)cn3C2CC2)CC1NC` (stereo not drawn), the minimal inhibitory concentration (MIC) against Staphylococcus aureus [1] was determined as 0.03 µg/mL (≈ 0.0695 µM); in the test on Staphylococcus aureus [2] it was 16 µg/mL (≈ 37.1 µM); against Streptococcus pneumoniae, 0.015 µg/mL (≈ 0.0348 µM); against Enterococcus faecalis, 0.015 µg/mL (≈ 0.0348 µM); in the test on Escherichia coli, 8 µg/mL (≈ 18.5 µM); against Klebsiella pneumoniae it was 8 µg/mL (≈ 18.5 µM). The lowest concentration to inhibit growth with Pseudomonas aeruginosa (MIC) was 2 µg/mL (≈ 4.64 µM).

For the molecule `CO/N=C1\CN(c2nc3c(cc2F)c(=O)c(C(=O)O)cn3C2CC2)CCC1N` (stereo not drawn), the MIC against Staphylococcus aureus [1] stood at 2 µg/mL (≈ 5.14 µM); in the test on Staphylococcus aureus [2], 4 µg/mL (≈ 10.3 µM); against Streptococcus pneumoniae, 2 µg/mL (≈ 5.14 µM); against Enterococcus faecalis, 2 µg/mL (≈ 5.14 µM); in the test with Escherichia coli it was 1 µg/mL (≈ 2.57 µM); in the test with Klebsiella pneumoniae, 1 µg/mL (≈ 2.57 µM). The minimum inhibitory concentration (MIC) in the test with Pseudomonas aeruginosa worked out at 1 µg/mL (≈ 2.57 µM).

`CNC1CN(c2nc3c(cc2F)c(=O)c(C(=O)O)cn3C2CC2)CC/C1=N\OCc1ccccc1` (stereo not drawn): the MIC in the test on Staphylococcus aureus [1] was 0.125 µg/mL (≈ 0.261 µM); against Staphylococcus aureus [2] it was 16 µg/mL (≈ 33.4 µM); in the test on Streptococcus pneumoniae, 0.25 µg/mL (≈ 0.521 µM); against Enterococcus faecalis it was 0.125 µg/mL (≈ 0.261 µM); against Escherichia coli it was 16 µg/mL (≈ 33.4 µM); in the test with Klebsiella pneumoniae it was 16 µg/mL (≈ 33.4 µM). The molecule further came in with an MIC against Pseudomonas aeruginosa of 2 µg/mL (≈ 4.17 µM).

Take `CO/N=C1\CCN(c2nc3c(cc2F)c(=O)c(C(=O)O)cn3C2CC2)CC1NC1CC1` (stereo not drawn): the minimum inhibitory concentration (MIC) with Staphylococcus aureus [1] was 0.015 µg/mL (≈ 0.0349 µM); in the test on Staphylococcus aureus [2], 2 µg/mL (≈ 4.66 µM); against Streptococcus pneumoniae it was 0.004 µg/mL (≈ 0.00931 µM); in the test with Enterococcus faecalis, 0.004 µg/mL (≈ 0.00931 µM); in the test on Escherichia coli, 16 µg/mL (≈ 37.3 µM); in the test with Klebsiella pneumoniae, 16 µg/mL (≈ 37.3 µM). In the test with Pseudomonas aeruginosa, this molecule gave an MIC of 8 µg/mL (≈ 18.6 µM).

With `CO/N=C1\CCN(c2nc3c(cc2F)c(=O)c(C(=O)O)cn3C2CC2)CC1N(C)C` (stereo not drawn), the minimal inhibitory concentration (MIC) against Staphylococcus aureus [1] was determined as 0.004 µg/mL (≈ 0.00958 µM); in the test on Staphylococcus aureus [2] it was 1 µg/mL (≈ 2.4 µM); in the test with Streptococcus pneumoniae, 0.015 µg/mL (≈ 0.0359 µM); with Enterococcus faecalis, 0.015 µg/mL (≈ 0.0359 µM); in the test on Escherichia coli it was 8 µg/mL (≈ 19.2 µM); against Klebsiella pneumoniae, 1 µg/mL (≈ 2.4 µM). Also, the minimal inhibitory concentration (MIC) in the test on Pseudomonas aeruginosa amounted to 0.125 µg/mL (≈ 0.299 µM).

With `CCO/N=C1\CCN(c2nc3c(cc2F)c(=O)c(C(=O)O)cn3C2CC2)CC1N(C)C` (stereo not drawn), the minimum inhibitory concentration (MIC) was 0.015 µg/mL (≈ 0.0348 µM) in the test with Staphylococcus aureus [1]; 1 µg/mL (≈ 2.32 µM) against Staphylococcus aureus [2]; 0.002 µg/mL (≈ 0.00464 µM) against Streptococcus pneumoniae; 0.004 µg/mL (≈ 0.00927 µM) with Enterococcus faecalis; 8 µg/mL (≈ 18.5 µM) against Escherichia coli; 2 µg/mL (≈ 4.64 µM) against Klebsiella pneumoniae. Besides, the minimum inhibitory concentration (MIC) in the test with Pseudomonas aeruginosa was determined as 1 µg/mL (≈ 2.32 µM).

In the case of `CCCO/N=C1\CCN(c2nc3c(cc2F)c(=O)c(C(=O)O)cn3C2CC2)CC1N(C)C` (stereo not drawn), the minimum inhibitory concentration (MIC) was determined as 0.5 µg/mL (≈ 1.12 µM) against Staphylococcus aureus [1]; 2 µg/mL (≈ 4.49 µM) against Staphylococcus aureus [2]; 0.125 µg/mL (≈ 0.281 µM) in the test with Streptococcus pneumoniae; 0.25 µg/mL (≈ 0.561 µM) against Enterococcus faecalis; 16 µg/mL (≈ 35.9 µM) against Escherichia coli; 16 µg/mL (≈ 35.9 µM) against Klebsiella pneumoniae. In the test with Pseudomonas aeruginosa, this molecule registered a minimal inhibitory concentration (MIC) of 2 µg/mL (≈ 4.49 µM).

Take `CNC1CN(c2nc3c(cc2F)c(=O)c(C(=O)O)cn3C2CC2)CC/C1=N\OC` (stereo not drawn): the MIC with Staphylococcus aureus [1] was under 0.001 µg/mL; against Staphylococcus aureus [2], 4 µg/mL (≈ 9.92 µM); with Streptococcus pneumoniae, under 0.001 µg/mL; with Enterococcus faecalis it was under 0.001 µg/mL; with Escherichia coli, 4 µg/mL (≈ 9.92 µM); against Klebsiella pneumoniae, 2 µg/mL (≈ 4.96 µM). Moreover, in the test on Pseudomonas aeruginosa, the MIC worked out at 1 µg/mL (≈ 2.48 µM).

Take `CNC1CCN(c2nc3c(cc2F)c(=O)c(C(=O)O)cn3C2CC2)C/C1=N\OCc1ccccc1` (stereo not drawn): the minimum inhibitory concentration (MIC) is under 0.001 µg/mL against Staphylococcus aureus [1]; 2 µg/mL (≈ 4.17 µM) against Staphylococcus aureus [2]; under 0.001 µg/mL against Streptococcus pneumoniae; under 0.001 µg/mL with Enterococcus faecalis; 8 µg/mL (≈ 16.7 µM) against Escherichia coli; 4 µg/mL (≈ 8.34 µM) in the test with Klebsiella pneumoniae. The molecule also came in with a minimal inhibitory concentration (MIC) against Pseudomonas aeruginosa of 0.5 µg/mL (≈ 1.04 µM).

Take `CO/N=C1\CCN(c2nc3c(cc2F)c(=O)c(C(=O)O)cn3C2CC2)CC1N` (stereo not drawn): the minimum inhibitory concentration (MIC) against Staphylococcus aureus [1] is 4 µg/mL (≈ 10.3 µM); in the test with Staphylococcus aureus [2], 16 µg/mL (≈ 41.1 µM); in the test on Streptococcus pneumoniae, 4 µg/mL (≈ 10.3 µM); against Enterococcus faecalis, 8 µg/mL (≈ 20.5 µM); with Escherichia coli it was 8 µg/mL (≈ 20.5 µM); in the test with Klebsiella pneumoniae, 2 µg/mL (≈ 5.14 µM). In addition, inhibition of growth against Pseudomonas aeruginosa (MIC) required 4 µg/mL (≈ 10.3 µM).

For the molecule `CN(C)C1CN(c2nc3c(cc2F)c(=O)c(C(=O)O)cn3C2CC2)CC/C1=N\OCc1ccccc1` (stereo not drawn), the MIC amounted to 0.015 µg/mL (≈ 0.0304 µM) with Staphylococcus aureus [1]; 4 µg/mL (≈ 8.1 µM) with Staphylococcus aureus [2]; 0.015 µg/mL (≈ 0.0304 µM) with Streptococcus pneumoniae; 0.06 µg/mL (≈ 0.122 µM) against Enterococcus faecalis; 16 µg/mL (≈ 32.4 µM) against Escherichia coli; 16 µg/mL (≈ 32.4 µM) with Klebsiella pneumoniae. Further, inhibition of growth against Pseudomonas aeruginosa (MIC) required 2 µg/mL (≈ 4.05 µM).

Turning to `CCO/N=C1\CN(c2nc3c(cc2F)c(=O)c(C(=O)O)cn3C2CC2)CCC1NC` (stereo not drawn), the minimal inhibitory concentration (MIC) was under 0.001 µg/mL with Staphylococcus aureus [1]; 2 µg/mL (≈ 4.79 µM) against Staphylococcus aureus [2]; under 0.001 µg/mL against Streptococcus pneumoniae; under 0.001 µg/mL against Enterococcus faecalis; 4 µg/mL (≈ 9.58 µM) with Escherichia coli; 1 µg/mL (≈ 2.4 µM) in the test on Klebsiella pneumoniae. Moreover, 0.06 µg/mL (≈ 0.144 µM) was the least that counted as inhibitory against Pseudomonas aeruginosa (MIC).

Take `CCCO/N=C1\CN(c2nc3c(cc2F)c(=O)c(C(=O)O)cn3C2CC2)CCC1NC` (stereo not drawn): the minimum inhibitory concentration (MIC) against Staphylococcus aureus [1] stood at 0.06 µg/mL (≈ 0.139 µM); in the test on Staphylococcus aureus [2], 2 µg/mL (≈ 4.64 µM); with Streptococcus pneumoniae, 0.03 µg/mL (≈ 0.0695 µM); in the test with Enterococcus faecalis it was 0.06 µg/mL (≈ 0.139 µM); against Escherichia coli, 4 µg/mL (≈ 9.27 µM); in the test on Klebsiella pneumoniae it was 4 µg/mL (≈ 9.27 µM). Moreover, the minimum inhibitory concentration (MIC) against Pseudomonas aeruginosa is 0.06 µg/mL (≈ 0.139 µM).

With `CO/N=C1\CN(c2nc3c(cc2F)c(=O)c(C(=O)O)cn3C2CC2)CC1CN` (stereo not drawn) [GEMIFLOXACIN], the minimum inhibitory concentration (MIC) in the test with Staphylococcus aureus [1] is 0.004 µg/mL (≈ 0.0103 µM); against Staphylococcus aureus [2] it was 0.004 µg/mL (≈ 0.0103 µM); against Streptococcus pneumoniae, 0.004 µg/mL (≈ 0.0103 µM); with Enterococcus faecalis, 0.004 µg/mL (≈ 0.0103 µM); in the test with Escherichia coli it was 0.125 µg/mL (≈ 0.321 µM); with Klebsiella pneumoniae it was 0.125 µg/mL (≈ 0.321 µM). The molecule also had an MIC in the test with Pseudomonas aeruginosa of 0.125 µg/mL (≈ 0.321 µM).

For the molecule `CC(=O)NC[C@H]1CN(c2ccc(N3CCOCC3)c(F)c2)C(=O)O1` [LINEZOLID], the results for the MIC in the test on Staphylococcus aureus [1], against Staphylococcus aureus [2] and in the test with Enterococcus faecalis were 0.5 µg/mL (≈ 1.48 µM), 1 µg/mL (≈ 2.96 µM) and 0.125 µg/mL (≈ 0.371 µM), respectively.

The molecule `CN[C@H](CC(C)C)C(=O)N[C@H]1C(=O)N[C@@H](CC(N)=O)C(=O)N[C@H]2C(=O)N[C@H]3C(=O)N[C@H](C(=O)N[C@H](C(=O)O)c4cc(O)cc(O)c4-c4cc3ccc4O)[C@H](O)c3ccc(c(Cl)c3)Oc3cc2cc(c3O[C@@H]2O[C@H](CO)[C@@H](O)[C@H](O)[C@H]2O[C@H]2C[C@](C)(N)[C@H](O)[C@H](C)O2)Oc2ccc(cc2Cl)[C@H]1O` [VANCOMYCIN] had a minimum inhibitory concentration (MIC) against Streptococcus pneumoniae of 0.004 µg/mL (≈ 0.00276 µM).
